One series concerns HSV-1. The series is described as follows: In vitro assay for anti-HSV-1 mRNA activity (QuantiGene Plex 2.0 bDNA) in infected primary Adult Human Dermal Microvascular Endothelial Cells. Format: cell-based, HSV type 1. The conditions noted are these: variable slope fit; for LogIC50 (best-fit value): concentrations in μM, overnight incubation, triplicate. Here is the method:
(§1) In vitro assays for anti-HSV-1 and anti-HSV-2 mRNA activity are described in Example 1. Confluent Vero cell monolayers were infected with HSV type 1 or HSV type 2 at a multiplicity of infection of 10 and the resultant virus was used to infect primary Adult Human Dermal Microvascular Endothelial Cells for 1 hour; the supernatant was replaced with fresh culture media and then incubated overnight in the presence of various concentrations of acyclovir, 2-deoxy-D-glucose or an equimolar combination of the two compounds. After overnight incubation, the cells were harvested, lysed, and subjected to QuantiGene Plex 2.0 assay (Panomics, Inc., Fremont, Calif.) for quantitative assay of HSV-1 and HSV-2 mRNA. The QuantiGene Plex 2.0 assay combines branched DNA (bDNA) signal amplification and multi-analyte profiling beads (xMAP®) technologies to enable the detection and quantitation of multiple mRNA targets simultaneously. Briefly, confluent Vero cell monolayers were infected with HSV type 1 or HSV type 2 at a multiplicity of infection of 10 and the resultant virus was used to infect primary Adult Human Dermal Microvascular Endothelial Cells for 1 hour and then the supernatant was replaced with fresh culture media and then incubated overnight in the presence of various concentrations of acyclovir, 2-deoxy-D-glucose or an equimolar combination of the two compounds. […], this assay is considered to be a more sensitive and specific assay (bDNA) for the final readout when compared to an ELISA. The ELISA method while easier, can lack specificity to determine the difference between HSV1 and HSV2. The bDNA assay is a hybridization-based method of target-specific RNA quantitation that amplifies signal rather than target RNA, using labeled DNA probes. The QuantiGene Plex 2.0 system utilizes fluorescent microspheres (Capture Beads) as a support to capture specific RNA molecules. The ability to quantify multiple target-specific RNA molecules in a single sample lies in the design of the Probe Sets. […] The resulting fluorescence signal associated with individual Capture Beads is read on a Luminex flow cytometer. Signal is reported as median fluorescence intensity (MFI) and is proportional to the number of target RNA molecules present in the sample. […]

The next series has as its system HSV-2. The series is described as follows: In vitro assay for anti-HSV-2 mRNA activity (QuantiGene Plex 2.0 bDNA) in infected primary Adult Human Dermal Microvascular Endothelial Cells. The conditions noted are these: variable slope fit; for LogIC50 (best-fit value): concentrations in μM, overnight incubation, triplicate. The format is cell-based, HSV type 2. Here is the method:
as §1

For series [1] the following is noted: topical versus oral; cited from earlier work.

Turning to `O=CC[C@@H](O)[C@H](O)[C@H](O)CO` [2 Deoxy D glucose, 2-deoxy-D-glucose], in the series on HSV-1, the “HillSlope (best-fit value)” value is −2.395 and the “LogIC50 (best-fit value)” value turned out to be 1.32. In the series on HSV-2, the “HillSlope (best-fit value)” value is listed as −3.957 and the “LogIC50 (best-fit value)” value turned out to be 0.9029.

Regarding `Nc1nc2c(ncn2COCCO)c(=O)[nH]1` [Acyclovir, 9-(2-hydroxyethoxymethyl)guanine], in the series with HSV-1, the “HillSlope (best-fit value)” value is reported as −1.108 and the “LogIC50 (best-fit value)” value worked out at 0.2509. In the series on HSV-2, the “HillSlope (best-fit value)” value was −1.113 and the “LogIC50 (best-fit value)” value was 0.2805. In addition, the “drug concentration in the skin after local application, lower than after given orally” value in series [1] is given as 2-3 times.

Values taken from patent US9144576B2, “Topical antiviral formulations” (3B Pharmaceuticals, Inc., priority 2008, dated 2015).
